Data: patent publication US11753411B2, “Substituted pyrazolo[1,5-a]pyrimidines as TYK2 pseudokinase ligands” (Ventyx Biosciences, Inc., priority 2019, dated 2023)

Test system: IFN-a/Jak1 Tyk2
Experiment: Co-stimulation assay in lysed whole blood: IFNa (JAK1/TYK2) stimulated STAT1 phosphorylation
Format: cell-based
Settings: Homo sapiens, 20 min, 100 ng/mL IFNa (with 10 ng/mL GM-CSF), pSTAT by flow cytometry
Method in brief: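 Lysed human whole blood (RBC-lysed, resuspended in cRPMI) pre-incubated with compound 1 h at 37 °C, then stimulated 20 min with IFNa 100 ng/mL plus GM-CSF 10 ng/mL (final). Fixed, permeabilised, stained for pSTAT1 (PE) and pSTAT5 (AF488); flow cytometry read-out, ≥5,000–10,000 cells acquired.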

| IC50 | SMILES |
| --- | --- |
| 1 to 10 µM | CNc1cc(-c2cn(C(C)C)c3ncccc23)nc2c(NC(=O)N[C@H]3CC[C@H]3O)cnn12 [Compound 57, 1-((1S,2R)-2-hydroxycyclobutyl)-3-(5-(1-isopropyl-1H-pyrrolo[2,3-b]pyridin-3-yl)-7-(methylamino)pyrazolo[1,5-a]pyrimidin-3-yl)urea] |
| < 1 µM | CNC(=O)Nc1cnn2c(NC)cc(Nc3cccc4ccccc34)nc12 [Compound 160, 1-methyl-3-(7-(methylamino)-5-(naphthalen-1-ylamino)pyrazolo[1,5-a]pyrimidin-3-yl)urea] |
| 1 to 10 µM | CNc1cc(Nc2cccc3c2OCCO3)nc2c(NC(=O)NC3CC(F)(F)C3)cnn12 [Compound 34, 1-(3,3-difluorocyclobutyl)-3-(5-((2,3-dihydrobenzo[b][1,4]dioxin-5-yl)amino)-7-(methylamino)pyrazolo[1,5-a]pyrimidin-3-yl)urea] |
| < 1 µM | CNc1cc(Nc2cccc3c2OCCO3)nc2c(NC(=O)NC3CC3)cnn12 [Compound 139, 1-cyclopropyl-3-(5-((2,3-dihydrobenzo[b][1,4]dioxin-5-yl)amino)-7-(methylamino)pyrazolo[1,5-a]pyrimidin-3-yl)urea] |
| < 1 µM | CNc1cc(Nc2cccc3occc23)nc2c(NC(=O)N[C@@H]3C[C@@H]3F)cnn12 [Compound 50, 1-(5-(benzofuran-4-ylamino)-7-(methylamino)pyrazolo[1,5-a]pyrimidin-3-yl)-3-((1R,2S)-2-fluorocyclopropyl)urea] |
| 1 to 10 µM | CNC(=O)Nc1cnn2c(NC)cc(Nc3cncc4ccccc34)nc12 [Compound 91, 1-(5-(isoquinolin-4-ylamino)-7-(methylamino)pyrazolo[1,5-a]pyrimidin-3-yl)-3-methylurea] |
| < 1 µM | CCNC(=O)Nc1cnn2c(NC)cc(Nc3cccc4c3OCCO4)nc12 [Compound 147, 1-(5-((2,3-dihydrobenzo[b][1,4]dioxin-5-yl)amino)-7-(methylamino)pyrazolo[1,5-a]pyrimidin-3-yl)-3-ethylurea] |
| < 1 µM | CNC(=O)Nc1cnn2c(NC)cc(Nc3cc(OC)cc(OC)c3)nc12 [Compound 70, 1-(5-((3,5-dimethoxyphenyl)amino)-7-(methylamino)pyrazolo[1,5-a]pyrimidin-3-yl)-3-methylurea] |
| ≥ 10 µM | CNc1cc(Nc2cccc3c2OCCO3)nc2c(NC(=O)NC3CC3O)cnn12 (stereo not shown) [Compound 32, 1-(5-((2,3-dihydrobenzo[b][1,4]dioxin-5-yl)amino)-7-(methylamino)pyrazolo[1,5-a]pyrimidin-3-yl)-3-(2-hydroxycyclopropyl)urea] |
| 1 to 10 µM | CNC(=O)Nc1cnn2c(NC)cc(Nc3ccnc4c3OCCO4)nc12 [Compound 92, 1-(5-((2,3-dihydro-[1,4]dioxino[2,3-b]pyridin-8-yl)amino)-7-(methylamino)pyrazolo[1,5-a]pyrimidin-3-yl)-3-methylurea] |
| < 1 µM | CNC(=O)Nc1cnn2c(NC)cc(Nc3cc(F)cc(F)c3OC)nc12 [Compound 143, 1-(5-((3,5-difluoro-2-methoxyphenyl)amino)-7-(methylamino)pyrazolo[1,5-a]pyrimidin-3-yl)-3-methylurea] |
| 1 to 10 µM | CNC(=O)Nc1cnn2c(NC)cc(Nc3ccc4c(c3)OCCO4)nc12 [Compound 107, 1-(5-((2,3-dihydrobenzo[b][1,4]dioxin-6-yl)amino)-7-(methylamino)pyrazolo[1,5-a]pyrimidin-3-yl)-3-methylurea] |
| 1 to 10 µM | CNC(=O)Nc1cnn2c(NC)cc(-c3cn(C4COC4)c4ncccc34)nc12 [Compound 86, 1-methyl-3-(7-(methylamino)-5-(1-(oxetan-3-yl)-1H-pyrrolo[2,3-b]pyridin-3-yl)pyrazolo[1,5-a]pyrimidin-3-yl)urea] |
| 1 to 10 µM | CNC(=O)Nc1cnn2c(NC)cc(Nc3ccccc3Oc3ccccc3)nc12 [Compound 161, 1-methyl-3-(7-(methylamino)-5-((2-phenoxyphenyl)amino)pyrazolo[1,5-a]pyrimidin-3-yl)urea] |
| ≥ 10 µM | CNc1cc(-c2cn(C(C)C)c3ncccc23)nc2c(NC(=O)NC3CC3O)cnn12 (stereo not shown) [Compound 58, 1-(2-hydroxycyclopropyl)-3-(5-(1-isopropyl-1H-pyrrolo[2,3-b]pyridin-3-yl)-7-(methylamino)pyrazolo[1,5-a]pyrimidin-3-yl)urea] |
| 1 to 10 µM | CNc1cc(Nc2cccc3c2OCCO3)nc2c(NC(=O)NC3CS(=O)(=O)C3)cnn12 [Compound 125, 1-(5-((2,3-dihydrobenzo[b][1,4]dioxin-5-yl)amino)-7-(methylamino)pyrazolo[1,5-a]pyrimidin-3-yl)-3-(1,1-dioxidothietan-3-yl)urea] |
| < 1 µM | CNC(=O)Nc1cnn2c(NC)cc(Nc3cccc(OC)c3)nc12 [Compound 150, 1-(5-((3-methoxyphenyl)amino)-7-(methylamino)pyrazolo[1,5-a]pyrimidin-3-yl)-3-methylurea] |

| IC50 | SMILES |
| --- | --- |
| < 1 µM | CNc1cc(Nc2cc(C#N)cc3c2OCCO3)nc2c(NC(=O)N[C@@H]3C[C@@H]3F)cnn12 [Compound 33, 1-(5-((7-cyano-2,3-dihydrobenzo[b][1,4]dioxin-5-yl)amino)-7-(methylamino)pyrazolo[1,5-a]pyrimidin-3-yl)-3-((1R,2S)-2-fluorocyclopropyl)urea] |
| 1 to 10 µM | C#CCNC(=O)Nc1cnn2c(NC)cc(Nc3c(F)ccc4c3OCCO4)nc12 [Compound 135, 1-(5-((6-fluoro-2,3-dihydrobenzo[b][1,4]dioxin-5-yl)amino)-7-(methylamino)pyrazolo[1,5-a]pyrimidin-3-yl)-3-(prop-2-yn-1-yl)urea] |
| 1 to 10 µM | CNC(=O)Nc1cnn2c(NC)cc(Nc3cccc4c3CCCC4)nc12 [Compound 170, 1-methyl-3-(7-(methylamino)-5-((5,6,7,8-tetrahydronaphthalen-1-yl)amino)pyrazolo[1,5-a]pyrimidin-3-yl)urea] |
| < 1 µM | CNc1cc(Nc2cccc3cccnc23)nc2c(NC(=O)N[C@@H]3C[C@@H]3F)cnn12 [Compound 39, 1-((1R,2S)-2-fluorocyclopropyl)-3-(7-(methylamino)-5-(quinolin-8-ylamino)pyrazolo[1,5-a]pyrimidin-3-yl)urea] |
| < 1 µM | CNC(=O)Nc1cnn2c(NC)cc(Nc3cccc4c3OCCC4)nc12 [Compound 157, 1-(5-(chroman-8-ylamino)-7-(methylamino)pyrazolo[1,5-a]pyrimidin-3-yl)-3-methylurea] |
| < 1 µM | CNc1cc(Nc2cc(F)cc3c2OCCO3)nc2c(NC(=O)NC3CC3)cnn12 [Compound 69, 1-cyclopropyl-3-(5-((7-fluoro-2,3-dihydrobenzo[b][1,4]dioxin-5-yl)amino)-7-(methylamino)pyrazolo[1,5-a]pyrimidin-3-yl)urea] |
| < 1 µM | CNc1cc2nc3c(cnn13)NC(=O)NCCc1cccc(c1)N2 [Compound 25, (1^3E,1^4E)-1^7-(methylamino)-2,6,8-triaza-1(5,3)-pyrazolo[1,5-a]pyrimidina-3(1,3)-benzenacyclooctaphan-7-one] |
| 1 to 10 µM | CNc1cc2nc3c(cnn13)NC(=O)NCCOc1cccc(c1)N2 [Compound 22, (1^3E,1^4E)-1^7-(methylamino)-4-oxa-2,7,9-triaza-1(5,3)-pyrazolo[1,5-a]pyrimidina-3(1,3)-benzenacyclononaphan-8-one] |
| < 1 µM | [2H]C([2H])([2H])Nc1cc(-c2cn(C3CCOCC3)c3ncccc23)nc2c(NC(=O)NC)cnn12 [Compound 73, 1-methyl-3-(7-((methyl-d3)amino)-5-(1-(tetrahydro-2H-pyran-4-yl)-1H-pyrrolo[2,3-b]pyridin-3-yl)pyrazolo[1,5-a]pyrimidin-3-yl)urea] |
| < 1 µM | CNC(=O)Nc1cnn2c(NC)cc(Nc3cc(C)cc4c3OCCO4)nc12 [Compound 78, 1-methyl-3-(5-((7-methyl-2,3-dihydrobenzo[b][1,4]dioxin-5-yl)amino)-7-(methylamino)pyrazolo[1,5-a]pyrimidin-3-yl)urea] |
| < 1 µM | CNc1cc(Nc2cc(C)ccc2OC)nc2c(NC(=O)NCC#N)cnn12 [Compound 129, 1-(cyanomethyl)-3-(5-((2-methoxy-5-methylphenyl)amino)-7-(methylamino)pyrazolo[1,5-a]pyrimidin-3-yl)urea] |
| < 1 µM | CNc1cc(-c2cn(C3CCOCC3)c3ncccc23)nc2c(NC(=O)NCC#N)cnn12 [Compound 137, 1-(cyanomethyl)-3-(7-(methylamino)-5-(1-(tetrahydro-2H-pyran-4-yl)-1H-pyrrolo[2,3-b]pyridin-3-yl)pyrazolo[1,5-a]pyrimidin-3-yl)urea] |
| 1 to 10 µM | CNC(=O)Nc1cnn2c(NC)cc(Nc3cccc(-c4cnn(C)c4)c3OC)nc12 [Compound 19, 1-(5-((2-methoxy-3-(1-methyl-1H-pyrazol-4-yl)phenyl)amino)-7-(methylamino)pyrazolo[1,5-a]pyrimidin-3-yl)-3-methylurea] |
| < 1 µM | C#C[C@H](C)NC(=O)Nc1cnn2c(NC)cc(Nc3cccc4c3OCCO4)nc12 [Compound 123, (S)-1-(but-3-yn-2-yl)-3-(5-((2,3-dihydrobenzo[b][1,4]dioxin-5-yl)amino)-7-(methylamino)pyrazolo[1,5-a]pyrimidin-3-yl)urea] |
| < 1 µM | CNC(=O)Nc1cnn2c(NC)cc(Nc3cc(Cl)cc4c3OCCO4)nc12 [Compound 77, 1-(5-((7-chloro-2,3-dihydrobenzo[b][1,4]dioxin-5-yl)amino)-7-(methylamino)pyrazolo[1,5-a]pyrimidin-3-yl)-3-methylurea] |
| 1 to 10 µM | CNC(=O)Nc1cnn2c(NC)cc(NC3CCCC3)nc12 [Compound 155, 1-(5-(cyclopentylamino)-7-(methylamino)pyrazolo[1,5-a]pyrimidin-3-yl)-3-methylurea] |
| < 1 µM | CNc1cc(Nc2cccc3cccnc23)nc2c(NC(=O)NCC#N)cnn12 [Compound 127, 1-(cyanomethyl)-3-(7-(methylamino)-5-(quinolin-8-ylamino)pyrazolo[1,5-a]pyrimidin-3-yl)urea] |
